Measured values from ChEMBL document CHEMBL4382229, “Benzofuran derivatives and their anti-tubercular, anti-bacterial activities” (Eur J Med Chem, 2019).
In brackets after ≈: the same amount, converted by molar mass.

Tests used:
Pseudomonas aeruginosa [1] = test: Antibacterial activity against Pseudomonas aeruginosa assessed as zone of inhibition at 50 ug/ml after 3 days by filter paper disc method; format: functional; conditions: 72 h, read-out: IZ
Escherichia coli [2] = test: Antibacterial activity against Escherichia coli assessed as zone of inhibition at 50 ug/ml after 3 days by filter paper disc method; format: functional; conditions: 72 h, read-out: IZ
Bacillus subtilis = test: Antibacterial activity against Bacillus subtilis assessed as zone of inhibition at 50 ug/ml after 3 days by filter paper disc method; format: functional; conditions: 72 h, read-out: IZ
Staphylococcus aureus [3] = test: Antibacterial activity against Staphylococcus aureus assessed as zone of inhibition at 50 ug/ml after 3 days by filter paper disc method; format: functional; conditions: 72 h, read-out: IZ
Staphylococcus aureus [4] = test: Antibacterial activity against Staphylococcus aureus ATCC 6538 after 24 hrs by broth dilution method; format: functional
Proteus vulgaris [5] = test: Antibacterial activity against Proteus vulgaris […] after 24 hrs by broth dilution method; format: functional
Escherichia coli [6] = test: Antibacterial activity against Escherichia coli ATCC 11229 after 24 hrs by broth dilution method; format: functional
Bacillus spizizenii [7] = test: Antibacterial activity against Bacillus subtilis ATCC 6633 after 24 hrs by broth dilution method; format: functional
Pseudomonas aeruginosa [8] = test: Antibacterial activity against Pseudomonas aeruginosa MTCC 424 assessed as zone of inhibition at 100 ug/ml by disc diffusion method; format: functional; conditions: read-out: IZ
Streptococcus pyogenes = test: Antibacterial activity against Streptococcus pyogenes MTCC 442 assessed as zone of inhibition at 100 ug/ml by disc diffusion method; format: functional; conditions: read-out: IZ
Staphylococcus aureus [9] = test: Antibacterial activity against Staphylococcus aureus MTCC 96 assessed as zone of inhibition at 100 ug/ml by disc diffusion method; format: functional; conditions: read-out: IZ
[10] = system: Mycobacterium tuberculosis; test: Antimycobacterial activity against Mycobacterium tuberculosis H37Rv ATCC 27294 after 5 days by microplate alamar blue assay; format: functional; conditions: H37Rv ATCC 27294, 120 h
Pseudomonas aeruginosa [11] = test: Antibacterial activity against Pseudomonas aeruginosa by broth dilution method; format: functional
Escherichia coli [12] = test: Antibacterial activity against Escherichia coli MTCC 443 assessed as zone of inhibition at 100 ug/ml by disc diffusion method; format: functional; conditions: read-out: IZ
Bacillus spizizenii [13] = test: Antibacterial activity against Bacillus subtilis ATCC 6633 after 24 hrs; format: functional; conditions: ATCC 6633, 24 h
Escherichia coli [14] = test: Antibacterial activity against Escherichia coli ATCC 25922 after 24 hrs; format: functional; conditions: ATCC 25922, 24 h
Proteus vulgaris [15] = test: Antibacterial activity against Proteus vulgaris after 24 hrs; format: functional
Staphylococcus aureus [16] = test: Antibacterial activity against Staphylococcus aureus ATCC 25923 after 24 hrs; format: functional; conditions: ATCC 25923, 24 h
[17] = system: Mycobacterium tuberculosis; test: Antitubercular activity against Mycobacterium tuberculosis Erdman infected in BALB/c mouse assessed as reduction in bacterial load in spleen at 25 mg/kg, po administered once daily via gavage starting from 27 days post infection for 5 consecutive days per week for 4 weeks; format: functional
[18] = system: Mycobacterium tuberculosis; test: Antitubercular activity against Mycobacterium tuberculosis H37Rv infected in BALB/c mouse assessed as reduction in bacterial load in lungs at 10 mg/kg, po administered once daily via gavage for 5 consecutive days per week for 2 weeks; format: functional
[19] = system: Mycobacterium tuberculosis; test: Antitubercular activity against Mycobacterium tuberculosis Erdman infected in BALB/c mouse assessed as reduction in bacterial load in lungs at 25 mg/kg, po administered once daily via gavage starting from 27 days post infection for 5 consecutive days per week for 4 weeks; format: functional
Staphylococcus aureus [20] = test: Antibacterial activity against Staphylococcus aureus assessed as diameter of inhibition zone at 250 ug/ml after 24 hrs by disc diffusion method; format: functional; conditions: read-out: DIZ
Escherichia coli [21] = test: Antibacterial activity against Escherichia coli assessed as diameter of inhibition zone at 250 ug/ml after 24 hrs by disc diffusion method; format: functional; conditions: read-out: DIZ
[22] = system: Mycobacterium tuberculosis; test: Antitubercular activity against Mycobacterium tuberculosis H37Rv infected in BALB/c mouse assessed as reduction in bacterial load in lungs at 200 mg/kg, po administered once daily via gavage for 5 consecutive days per week for 2 weeks; format: functional
[23] = system: Mycobacterium tuberculosis; test: microbe, parasite or virus in culture; conditions: MC2 7000, 144 h
[24] = system: Mycobacterium tuberculosis; test: Antitubercular activity against Mycobacterium tuberculosis Erdman infected in BALB/c mouse assessed as reduction in bacterial load in spleen at 300 mg/kg, po administered once daily via gavage starting from 27 days post infection for 5 consecutive days per week for 4 weeks; format: functional
[25] = system: Mycobacterium tuberculosis; test: Antitubercular activity against Mycobacterium tuberculosis Erdman infected in BALB/c mouse assessed as reduction in bacterial load in lungs at 300 mg/kg, po administered once daily via gavage starting from 27 days post infection for 5 consecutive days per week for 4 weeks; format: functional
Staphylococcus aureus [26] = test: Antibacterial activity against Staphylococcus aureus ATCC 29213 after 24 hrs by broth dilution method; format: functional

## O=C1/C(=C\c2cn(-c3ccccc3)nc2-c2cccs2)Oc2cc(Cl)ccc21
Pseudomonas aeruginosa [1]
  zone of inhibition at 50 µg/mL: 13 to 33 mm
Escherichia coli [2]
  zone of inhibition at 50 µg/mL: 13 to 33 mm
Bacillus subtilis
  zone of inhibition at 50 µg/mL: 13 to 33 mm
Staphylococcus aureus [3]
  zone of inhibition at 50 µg/mL: 13 to 33 mm

## O=C(c1ccc(Br)cc1)c1oc2ccc(Br)cc2c1/C=C/c1c[nH]c2ccccc12
Staphylococcus aureus [4]; ATCC 6538, 24 h
  MIC: 3.12 to 6.25 µg/mL (≈ 6 to 12 µM)
Proteus vulgaris [5]
  MIC: 3.12 to 6.25 µg/mL (≈ 6 to 12 µM)
Escherichia coli [6]; ATCC 11229, 24 h
  MIC: 3.12 to 6.25 µg/mL (≈ 6 to 12 µM)
Bacillus spizizenii [7]; ATCC 6633, 24 h
  MIC: 3.12 to 6.25 µg/mL (≈ 6 to 12 µM)

## O=C(O)c1cn(C2CC2)c2cc(N3CCNCC3)c(F)cc2c1=O [CIPROFLOXACIN]
Pseudomonas aeruginosa [8]
  zone of inhibition at 100 µg/mL: 21 to 28 mm
Pseudomonas aeruginosa [1]
  zone of inhibition at 50 µg/mL: 25 to 28 mm
Escherichia coli [2]
  zone of inhibition at 50 µg/mL: 25 to 28 mm
Streptococcus pyogenes
  zone of inhibition at 100 µg/mL: 21 to 28 mm
Staphylococcus aureus [9]
  zone of inhibition at 100 µg/mL: 21 to 28 mm
[10]
  MIC: 3.12 µg/mL (≈ 9.43 µM)
Pseudomonas aeruginosa [11]
  MIC: < 4 µg/mL
Escherichia coli [12]
  zone of inhibition at 100 µg/mL: 21 to 28 mm

## O=C1Nc2ccccc2/C1=N/NC(=O)c1cc2ccccc2o1
Bacillus spizizenii [13]
  MIC: 250 to 500 µg/mL (≈ 819 to 1640 µM)
Escherichia coli [14]
  MIC: 250 to 500 µg/mL (≈ 819 to 1640 µM)
Proteus vulgaris [15]
  MIC: 250 to 500 µg/mL (≈ 819 to 1640 µM)
Staphylococcus aureus [16]
  MIC: 250 to 500 µg/mL (≈ 819 to 1640 µM)

## NC(=O)c1cnccn1 [PYRAZINAMIDE]
[10]
  MIC: 3.12 µg/mL (≈ 25.4 µM)

## Nc1nn2c(-c3ccc(N4CCCCC4)cc3)cc(-c3cc4ccccc4o3)nc2c1/N=N/c1ccccc1
Pseudomonas aeruginosa [1]
  zone of inhibition at 50 µg/mL: 9 to 18 mm
Escherichia coli [2]
  zone of inhibition at 50 µg/mL: 9 to 18 mm

## NNC(=O)c1ccncc1 [ISONIAZID]
[17]
  Activity: 2.5 log10CFU
[18]
  Activity: 6.7 log10CFU
[19]
  Activity: 1.1 log10CFU

## Cc1ccc(Oc2nc3ccc(C)cc3cc2C2SCC(=O)N2NC(=O)c2cc(-c3cc4ccccc4o3)n(-c3ccccc3)n2)cc1 (centres undefined)
Staphylococcus aureus [20]
  zone of inhibition at 250 µg/mL: 12 to 14 mm
Escherichia coli [21]
  zone of inhibition at 250 µg/mL: 12 to 14 mm

## Cc1ccc(Oc2nc3ccc(C)cc3cc2/C=N\NC(=O)c2cc(-c3cc4ccccc4o3)n(-c3ccccc3)n2)cc1
Staphylococcus aureus [20]
  zone of inhibition at 250 µg/mL: 12 to 14 mm
Escherichia coli [21]
  zone of inhibition at 250 µg/mL: 12 to 14 mm

## CNC(=O)c1c(-c2ccc(O)cc2)oc2ccc(O)c(CN3CCCCC3)c12
[22]
  Activity: 6.8 log10CFU
[23]
  MIC: 0.09 µM (≈ 0.0342 µg/mL)
[24]
  Activity: 2.2 log10CFU
[25]
  Activity: 0.9 log10CFU

## GENTAMICIN
Staphylococcus aureus [4]
  MIC: 1.62 to 3.12 µg/mL
Proteus vulgaris [5]
  MIC: 1.62 to 3.12 µg/mL
Staphylococcus aureus [26]
  MIC: 1.6 to 3.1 µg/mL
Escherichia coli [6]
  MIC: 1.62 to 3.12 µg/mL
Bacillus spizizenii [7]
  MIC: 1.62 to 3.12 µg/mL
